One block for each compound: values may come before it.
Target: T1, TGF-beta receptor type-1 (Homo sapiens, UniProt P36897)
T1 sequence (P36897 whole entry): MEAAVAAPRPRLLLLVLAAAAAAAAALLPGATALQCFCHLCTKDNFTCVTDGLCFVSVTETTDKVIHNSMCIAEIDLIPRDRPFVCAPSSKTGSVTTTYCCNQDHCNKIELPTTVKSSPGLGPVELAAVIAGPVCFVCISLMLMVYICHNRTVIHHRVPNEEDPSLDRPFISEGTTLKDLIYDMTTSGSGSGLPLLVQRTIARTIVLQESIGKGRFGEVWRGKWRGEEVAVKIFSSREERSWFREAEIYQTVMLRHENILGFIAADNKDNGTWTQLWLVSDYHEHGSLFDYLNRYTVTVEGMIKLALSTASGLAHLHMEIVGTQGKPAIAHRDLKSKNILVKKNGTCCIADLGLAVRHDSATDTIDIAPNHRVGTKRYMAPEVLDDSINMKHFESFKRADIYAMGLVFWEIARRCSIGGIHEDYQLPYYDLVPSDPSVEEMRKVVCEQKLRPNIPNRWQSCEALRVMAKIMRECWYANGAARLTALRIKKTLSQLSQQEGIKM
Assay: In Vitro Assay
Description: The enzymatic activity of compounds of the present invention was monitored measuring the formation of ADP using the ADP-GLO Kinases assay. Following the incubation of the purified enzyme, a substrate and ATP, the produced ADP was converted into ATP, which in turn was converted into light by Ultra-Glo Luciferase. The luminescent signal positively correlated with ADP amount and kinase activity. Briefly, the kinase reaction was performed by incubating 2.6 nM of the purified, commercially available human ALK5 (recombinant TGF 31 N-term GST-tagged, 80-end), a final concentration of TGFβ1 peptide 94.5 μM (Promega, T36-58) and ultra-pure ATP (Promega V915B). The ATP concentration was set at the Km value (concentration of substrate which permits the enzyme to achieve half maximal velocity (Vmax)) of ALK5 (5 μM). All reactions/incubations were performed at 25° C. Compound and ALK5 kinase were mixed and incubated for 15 mins. Reactions were initiated by addition of ATP at a final concentration in the assay of […]. After an incubation of 150 min, the reaction was stopped, and ADP production detected with ADP-Glo kit according to manufacturer's indications. The assay was performed in 384-well format and was validated using a selection of reference compounds that was tested in 11 point concentration-response curve.

SMILES: CN(C)CCC(=O)Nc1cncc(-c2cc(-c3cc(Cl)ccc3F)nc3c2OCCN3)c1 [US20240116948, Example 8]
IC50: < 1 nM

SMILES: O=C(CCN1CCCC1)Nc1cncc(-c2cc(-c3cc(Cl)ccc3F)nc3c2OCCN3)c1 [US20240116948, Example 12]
IC50: < 1 nM

SMILES: CN1CCC(Oc2cncc(-c3cc(-c4cc(Cl)ccc4F)nc4c3OCCN4)c2)CC1 [US20240116948, Example 41]
IC50: < 1 nM

Continued, values first:

IC50: < 1 nM
SMILES: CN(C)CCCOc1cncc(-c2cc(-c3cc(Cl)ccc3F)nc3c2OCCN3)c1 [US20240116948, Example 27]

IC50: < 1 nM
SMILES: CN(CCO)CCC(=O)Nc1cncc(-c2cc(-c3cc(Cl)ccc3F)nc3c2OCCN3)c1 [US20240116948, Example 44]

IC50: < 1 nM
SMILES: CNCCCC(=O)Nc1cncc(-c2cc(-c3cc(Cl)ccc3F)nc3c2OCCN3)c1 [US20240116948, Example 31]

— BindingDB's records for patent US20240116948 (Chiesi Farmaceutici, 2024)
